Data: article PMC12040169 (PLOS Biology, 2025)

Test: in vitro
Settings: human, hela cells, % viability

Structure (SMILES)	viability at 28.5 h, 10 µM [%]
COC(=O)/N=C1/Nc2ccccc2CN1CC(N)=O [CBK007160]	91.9
COc1ccc(-c2cc(NC(=S)NC(=O)/C=C/c3ccccc3)[nH]n2)cc1 [CBK007190]	97.9
O=C(c1c[nH]c2ccccc12)C(F)(F)C(F)(F)F [CBK007222]	101
CS(=O)(=O)c1nsc(Cl)n1 [CBK007229]	87.9
FC(F)(F)c1ccc2[nH]c(Cn3cncn3)nc2c1 [CBK007335]	85.3
CC1(C)CC(=O)c2cnc3ncnn3c2C1 [CBK007345]	110
CN(C)c1nc(N2CCN(c3ccc(F)cc3)CC2)cc(C(F)(F)F)n1 [CBK007432]	91.1
COc1ccc(/C=N/NC(=O)C2CCN(c3ncc(C(F)(F)F)cc3Cl)CC2)cc1 [CBK007433]	102
O=C(Cc1ncc(C(F)(F)F)cc1Cl)NO [CBK007437]	85
COc1ccc(-n2nc(N)c3c(=O)oc(N(C)C)nc32)cc1 [CBK007445]	89.9
CN(C)c1nc(N2CCOCC2)c(C#N)c(=O)o1 [CBK007447]	116
O=C1NC2(CCSCC2)Oc2ccccc21 [CBK007488]	79.3
Cc1cc(CC(=O)N/N=C/c2ccccc2)[nH]n1 [CBK007500]	99.8
Cc1nn2c(c1-c1ccno1)CCCCC2 [CBK007505]	97.6
CSc1ncnc2c1CC=N2 [CBK007532]	96.4
O=C(Nc1nc2ccccc2s1)NC1CC1 [CBK007542]	102
CC(C)C(=O)N(C)c1nnc(-c2cccnc2)s1 [CBK007554]	114
COC(=O)c1c(C(C)(C)C)c(O)c2ccoc2c1OC [CBK007577]	94.2
Oc1cccc2c1CC(NCC(F)(F)C(F)(F)F)CC2 (stereo not shown) [CBK007596]	96.5
O=C(N[C@H]1COC(=O)N1)OCc1ccccc1 [CBK007606]	114

Structure (SMILES)	viability at 28.5 h, 10 µM [%]
CCCCCC(=O)N1CCc2cc(N3CC(CNC(C)=O)OC3=O)ccc21 (stereo not shown) [CBK007646]	92.5
COc1ccc(C2Oc3cccnc3N(CCCN(C)C)C2=O)cc1 (stereo not shown) [CBK007694]	101
Cc1c(C#N)c(=O)oc2ccccc12 [CBK007705]	95.2
CC(C)(C)OC(=O)N1Cc2c(-c3noc(C4CC4)n3)ncn2-c2ccc(Cl)cc21 [CBK007792]	90.2
CCCCCC(=O)N[C@H]1CCC[C@H]1C(=O)O [CBK007807]	118
O=C1c2ccccc2C(=O)N1CCc1nnn[nH]1 [CBK007829]	111
C/C(=N\O)c1ccc(S(N)(=O)=O)cc1 [CBK007871]	100
NC(=O)CCCN1CC[C@H]2c3c(cccc3C(N)=O)CC[C@H]21 [CBK007883]	93.3
CCOc1n[s+]([O-])nc1Nc1cc(Cl)cc(Cl)c1 (stereo not shown) [CBK007897]	101
OC1(c2nnsc2-c2ccccc2)CCCC1 [CBK007956]	90.2
Cc1c(NC(=S)NCCCN2CCOCC2)c(=O)n(-c2ccccc2)n1C [CBK008032]	90.7
O=C(NCc1cccs1)OCc1ccccc1 [CBK008074]	96.6
CN(C(=O)OC(C)(C)C)C1CN(C(c2ccccc2)c2ccccc2)C1 [CBK008111]	89.8
O=C1C=C(O)CC(CCc2ccc(F)cc2)(CCc2ccc(F)cc2)O1 [CBK008148]	92.7
N#CC(N)c1c(Cl)cccc1Cl (stereo not shown) [CBK008288C]	103
CCCOc1ccc(Cc2nc(N(C)C)cc(N(C)C)n2)cc1 [CBK008318]	102
O=C(c1c[nH]c(-c2ncn[nH]2)c1)c1ccc(Cl)cc1Cl [CBK008334]	93.4
Sc1nccn1Cc1cccs1 [CBK008454]	92
N#CCSC1=CC(=O)CC(c2ccccc2)S1 (stereo not shown) [CBK008460]	92.1
COCc1cc(=O)oc2cc(NS(C)(=O)=O)ccc12 [CBK008516]	119
